In brackets after ≈: the same amount, converted by molar mass. Entries after “also recorded” stand apart in the source; their conditions may differ. Read-outs that look alike come from different tables or passages of the source.
Tests used:
[1] = system: L. donovani intracellular amastigotes; test: Growth inhibition of intracellular amastigotes in J774A.1 macrophages (Renilla luciferase luminescence); type: cell-based; settings: Leishmania donovani, J774.A1; intracellular amastigotes in J774A.1 macrophages; mean ± standard deviation, n = 2; read-out: L. donovani EC50
Method: (§1) L. mexicana (MNYZ/BZ/62/M379) or L. donovani (LdBob strain) parasites expressing the Renilla luciferase gene from a rRNA gene locus were used to infect J774A.1 macrophages. Growth of intracellular amastigotes was measured using a luminescence assay, as detailed previously. The growth inhibitor activities of compounds were tested against bloodstream form Lister 427 T. brucei in 96-well plates containing 1 X 10^5 parasites per well in 0.2 ml HMI-11 medium (Gibco/Thermo Fisher). Compounds (2 μl volumes in DMSO) were added to the parasites using serial 3-fold dilutions to cover a range of concentrations from about 10 μM to 1 nM. After 48 h incubation at 37°C under a humidified 5% CO2 atmosphere, 10 μl of 10% Triton X-100 and 100 X stock SYBR Green I (Sigma-Aldrich) in PBS was added and florescence measured (excitation 497 nm; emission 520 nm) after 1 h incubation in the dark using a Spectra Max Gemini XPS fluorimeter (Molecular Devices). Data were log transformed and EC50 values were determined using GraphPad Prism 6 (GraphPad Software). In the absence of growth inhibiting compounds, the parasites grew from an initial density of 5 X 10^5 cells/mL to ~3 X 10^6 cells/mL.

[2] = system: bloodstream form Lister 427 T. brucei; test: Growth inhibition of T. brucei bloodstream forms (SYBR Green I); type: cell-based; settings: Trypanosoma brucei, bloodstream form; mean ± standard deviation, n = 2; read-out: T. brucei EC50
Method: as §1

[3] = Solubility in aqueous buffer; type: physicochemical; settings: citrate phosphate buffered saline, pH 7.4, aqueous buffer, kinetic from dmso stock
Method: Solubility assays were carried out on a Biomek FX lab automation workstation (Beckman Coulter, Inc., Fullerton, CA) using μSOL Evolution software (pION Inc.). Compound stock (10 mM in DMSO, 10 μL) was added to 1-propanol (190 μL) to make a reference stock plate. Reference stock solution (5 μL) was mixed with 1-propanol (70 μL) and citrate phosphate buffered saline (pH 7, 75 μL) to make the reference plate which was then measured with UV detection. Test compound stock (10 mM, 6 μL) was added to citrate phosphate buffered saline (594 μL) in a 96-well storage plate and mixed. […] The suspension was then filtered through a 96-well filter plate (pION Inc.). Filtrate (75 μL) was mixed with 1-propanol (75 μL) to make the sample plate, and the UV spectrum (250 nm −500 nm) of the sample plate was recorded. Calculation of solubility was carried out using μSOL Evolution software based on the AUC of the UV spectrum of the sample plate and the reference plate. All compounds were tested in triplicate.

Caco-2 cells = test: Caco-2 permeability assay; type: in vitro ADME; settings: predicted from solubility and membrane permeability
[4] = Mouse plasma protein binding assay (Rapid Equilibrium Dialysis); type: in vitro ADME; settings: mouse, mouse plasma, pH 7.4; for fraction unbound at 4 h, 0.8 μM: Conc. 0.8 μM; for fraction unbound at 4 h, 4 μM: Conc. 4 μM; for fraction unbound at 4 h, 20 μM: Conc. 20 μM
Method: (§2) A Rapid Equilibrium Dialysis (RED) Plate (Thermo Scientific, catalog #, PI-90007) was used to determine the percentage of compound binding to mouse plasma proteins (Thermo Scientific, catalog #, 50642085). The positive control for this experiment was propranolol HCl (295.807 g/mol) and the internal standard was warfarin in methanol (2 μM). 10 mM stocks of compound in DMSO were diluted with DMSO and acetonitrile to three different intermediate concentrations: high (2 mM), medium (0.4 mM) and low (0.08 mM) concentration in DMSO:acetonitrile (1:4, v:v). 10 mM stock of propranolol in DMSO were diluted to 0.4 mM concentration in DMSO:acetonitrile (1:4 v:v).
(§3) In 10 Eppendorf tubes, the control (10 μL) or each of three compound dilutions (10 μL) were each added to separate aliquots of 990 μL mouse plasma. Potassium phosphate buffer (500 μL, 0.1 M, pH 7.4, 37 °C) was placed in every white well of the RED plate and each plasma/compound mixture was added to each of 3 RED wells (300 μL). The RED plate holds triplicate samples of one control (final concentration […]) and one compound (final concentrations: 20 μM, 4 μM, […]). The RED Plate was sealed and incubated at 37 °C shaking at 250 rpm for 4 hours. After incubation, aliquots (50 μL) from each well in the RED plate were transferred to an assay plate (pION Inc., MA, #110323). In order to create a uniform matrix in every well of the assay plate, plasma (50 μL) was added to each of the wells that already contained buffer and potassium phosphate buffer (50 μL) was added to each of the wells that already contained plasma/compound. Pre-cooled internal standard (300 μL) was added to the assay plate to quench the reaction. The quenched plate was then centrifuged (5810R, Eppendorf, Westbury, NY) at 3000 rpm for 20 minutes.
(§4) The percentage of free compound [1] and bound compound [2] was calculated usng the AUC ratio of compound to warfarin from the SIR spectra. For reporting data, % Free = Concentration buffer/Concentration plasma *100 %, and % Bound = 100% - % Free.

mouse plasma proteins = test: as above; type: in vitro ADME; settings: across tested concentrations
Method: as §2, §3, §4

[5] = system: bloodstream form Lister 427 T. brucei; parameters: method as in PMID 23484493; settings: bloodstream form of Trypanosoma brucei; read-out: T. brucei bloodstream form EC50 (previously reported); cited from earlier work
[6] = Dose-ranging tolerability / 10-day toxicity study in mice; type: in vivo, mouse; settings: oral, 30 mg/kg

Compound `COc1ccc(-c2c(C(F)(F)F)oc3c(CN4CCN(C)CC4)c(O)ccc3c2=O)cc1OC` [Compound 4] has an EC50 [1] of 600 ± 500 nM, an EC50 [2] of 11000 ± 1000 nM and a solubility at 18 h [3] of 67 µM (≈ 32.1 µg/mL). For the same compound, the “Predicted absorption across the intestinal epithelium” value (Caco-2 cells) was ~ 85%, the fraction unbound at 4 h, 0.8 μM [4] was 0.54 and the fraction unbound at 4 h, 4 μM [4] was 0.599. For the same compound, the fraction unbound at 4 h, 20 μM [4] was 0.534 and the “Binding to mouse plasma proteins” value (mouse plasma proteins) was under 50%.
In the case of `Cc1ccc(-c2nc3ccccc3s2)cc1NC(=O)c1cc([N+](=O)[O-])c(N2CCN(C)CC2)cc1Cl` [Compound 5], the EC50 [1] is reported as 29 ± 27 nM, the solubility at 18 h [3] is reported as 0.3 µM (≈ 0.157 µg/mL) and the fraction unbound at 4 h, 0.8 μM [4] is reported as 0.65. For the same compound, the fraction unbound at 4 h, 4 μM [4] was 0.591, the fraction unbound at 4 h, 20 μM [4] was 0.586 and the “Binding to mouse plasma proteins” value (mouse plasma proteins) was under 50%. The EC50 [5] was 27 nM and the “Tolerability (weight loss, appetite, other toxicity)” value [6] was “suppressed appetite was resolved by dose reduction to 30 mg/kg; also recorded: No weight loss or other toxicity was observed”.
